In PMC11629774 (Science (New York, N.Y.), 2024):

Test system: primary human tonsillar lymphocytes
Experiment: Toxicity in primary human tonsillar lymphocytes at 72 hours
Type: cell-based
Conditions: Lymphocyte, read-out: EC50 toxicity

Compound: CC(C)(C)c1cnc(CSc2cnc(NC(=O)C3CCN(CC(=O)NCCOCCOCCOCCNc4cccc5c4C(=O)N(C4CCC(=O)NC4=O)C5=O)CC3)s2)o1 (centres unmarked) [THAL-SNS-032]
- EC50: ~15 nM

Compound: CC(C)(C)c1cnc(CSc2cnc(NC(=O)C3CCNCC3)s2)o1 [SNS-032]
- EC50: ~150 nM
